Read-outs that look alike come from different tables or passages of the source.
Columns and labels:
Huh-7.5 cells = assay: Cell viability assay ([…]-GLO); format: cell-based, human; conditions: for Cell viability (% viable): 10 μM compound, triplicate, average ± SD
Procedure: To assess compound toxicity toward Huh-7.5 cells, cells were plated and treated as above and cell viability was assessed using the […]-GLO luminescent cell viability kit (PROMEGA) following the manufacturer's instructions. Briefly, at the end of a 72 hour incubation period, the medium was aspirated and the cells were washed with 1×PBS, then an equal volume of growth medium and […]-GLO reagent was added and the lysis was initiated by mixing on an orbital shaker. The plate was incubated at 23° C. for 30 minutes and the luciferase activity was measured for 1 second using the FLUOSTAR Omega microplate reader (BMG Labtech).

[1] = target: T1, HCV NS3 helicase NS3h_1b(con1) (Hepatitis C virus genotype 1b, UniProt Q9WMX2); assay: biochemical; format: biochemical, hepatitis C virus genotype 1b(con1)
T1 construct: truncated C-terminally His-tagged NS3 proteins lacking the N-terminal protease, called NS3h; His-tag (C); made in house
T1 sequence (Q9WMX2 1192-1657): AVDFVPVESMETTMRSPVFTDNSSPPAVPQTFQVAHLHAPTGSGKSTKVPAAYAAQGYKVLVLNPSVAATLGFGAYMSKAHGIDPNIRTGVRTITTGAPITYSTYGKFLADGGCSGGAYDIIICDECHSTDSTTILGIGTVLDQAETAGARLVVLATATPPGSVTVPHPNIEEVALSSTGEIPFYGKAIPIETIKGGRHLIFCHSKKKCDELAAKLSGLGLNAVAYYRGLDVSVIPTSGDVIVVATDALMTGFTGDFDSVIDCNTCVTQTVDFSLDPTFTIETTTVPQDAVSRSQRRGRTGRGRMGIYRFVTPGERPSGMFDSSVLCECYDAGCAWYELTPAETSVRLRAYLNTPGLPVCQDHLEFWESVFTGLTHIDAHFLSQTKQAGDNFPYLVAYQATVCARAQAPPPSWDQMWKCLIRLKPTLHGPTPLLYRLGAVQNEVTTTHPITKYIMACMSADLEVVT
Description: All oligonucleotides were purchased from Integrated DNA Technologies (IDT, Coralville, Iowa). The partially duplex DNA substrates used in MBHAs consisted of a helicase substrate forming 25 base pairs and consists of a 45-mer bottom strand 5′-GCTCCCCGTTCATCGATTGGGGAGC(T)20-3′ (SEQ ID NO:1) and the 25-mer HCV top strand 5′-Cy5-GCTCCCCAATCGATGAACGGGGAGC-IBRQ-3′ (SEQ ID NO:2). The 19 base pair RNA substrate used in MBHAs was composed of a 39 nucleotide long bottom strand 5′-AGU GCC UUG ACG AUA CAG C(U)20-3′ (SEQ ID NO:3) and the 24 nucleotide long top strand 5′-Tye^665-AGUGCGCUGUAUCGUCAAGGCACU-IBRQSp-3′ (SEQ ID NO:4). Underlined areas denote hairpin-forming regions. DNA and RNA substrates were annealed and purified as described previously (Belon & Frick (2008) BioTechniques 45:433-40, 442).
The cloning, expression, and purification of His-tagged recombinant HCV NS3 protein have been described previously (Lam, et al. (20030 J. Virol. 77:3950-61; Heck, et al. (2008) Antimicrob. Agents Chemother. 52:1901-11; Frick et al. (2010) Methods Mol. Biol. 587:223-233; Belon, et al. & Frick (2009) J. Mol. Biol. 388:851-864).
All molecular beacon-based helicase assays (MBHAs) were performed according to known methods (Belon & Frick (2008) supra; Belon & Frick (2009) supra). […] In each flat, black 384-well plate, 56 compounds were tested, in triplicate, along with three negative controls (DMSO only), three positive controls (500 nM dT20), and two wells with no enzyme. Fluorescence was read before ATP (F0) addition and 30 minutes after ATP was added to 1 mM (F30) using a Tecan Infinite M200 fluorescence microplate reader with excitation and emission wavelengths set to 643 and 670 nm, respectively. Percent inhibition was calculated with equation 1, and compound interference in the MBHA was calculated with equation 2.
To monitor helicase reaction kinetics and to calculate IC50 values, MBHAs were performed in 60 μL in white ½ area 96-well plates and measured in a Thermo Varioscan Multimode reader (Thermo Scientific) using the 643 nm excitation wavelength and 667 emission wavelengths. Reactions were again performed by first incubating all components except for ATP for two minutes, then initiated by injecting in 1/10 volume of ATP such that the final concentration of all components was as noted above. Conditions were as described above except that 5% v/v DMSO was present in each assay. Initial reaction velocities were calculated by fitting first-order decay equation to data obtained after ATP addition and calculating an initial velocity form the resulting amplitude and rate constant.
[formula] where, v0 is the velocity observed in DMSO-only controls inhibition, h is the Hillslope coefficient, [I] is the concentration of test compound.

MBHA DNA substrate = assay: Modified FID assay, SYBR Green I; format: binding; conditions: for DNA binding (%): SYBR Green I-FID, average (±SD) percent bound at 100 μM
Procedure: A modified FID assay, in which ethidium bromide was replaced with SYBR Green I (Invitrogen), was used to estimate a compounds affinity for the MBHA substrate. Reactions were performed as described above except that the DNA substrate was present at 0.32 μM, ethidium bromide was absent, and SYBER Green was present at (0.68 μM). Data were normalized as described above and fit to concentration-response equation using GraphPad Prism software. Titrations with each compound were performed in triplicate, and EC50 values from three independent titrations are reported ±standard deviations.

[2] = genotype 1b (con1), read-out: Target Potency MBHA (IC50 avg., μM) 1b (con1)
[3] = MBHA, DNA unwinding, mean ± SD of three titrations, read-out: Helicase IC50
[4] = standard HCV helicase MBHA (Table 9), read-out: DNA Unwinding IC50
[5] = SYBR Green, read-out: FID (SG) EC50 (converted)
[6] = DNA-based MBHA, genotype 1b, read-out: DNA Helicase NS3h_1b IC50 (μM) ± SD
[7] = DNA Unwinding IC50, standard HCV helicase MBHA (Table 9)
[8] = Helicase IC50, MBHA, DNA unwinding, mean ± SD of three titrations
[9] = Target Potency MBHA (IC50 avg., μM) 1b (con1), genotype 1b (con1)
[10] = FID, mean ± SD, read-out: DNA Binding (SYBR Green I) EC50

Structure (SMILES) | Cell Viability (% @ 10 μM) (Huh-7.5 cells) | IC50 [1, 2] | Cell viability (% viable) (Huh-7.5 cells) | IC50 [1, 3] | IC50 [1, 4] | DNA binding (%) (MBHA DNA substrate) | FID (SG) % Displaced @ 100 μM (MBHA DNA substrate; SYBR Green) | EC50 (MBHA DNA substrate; [5]) | also measured
Cc1ccc2nc(-c3ccc4nc(-c5ccc(NC(=O)c6ccc7ncoc7c6)cc5)sc4c3)sc2c1S(=O)(=O)O | 114 ± 13% | 3.6 ± 1 µM |  |  |  |  |  |  | 
Cc1ccc2nc(-c3ccc4nc(-c5ccc(NS(=O)(=O)c6ccc(C(F)(F)F)cc6)cc5)sc4c3)sc2c1S(=O)(=O)O | 101 ± 6% | 32 ± 16 µM |  |  |  |  |  |  | 
Cc1ccc2nc(-c3ccc(NC(=O)c4ccc(C(F)(F)F)cc4)cc3)sc2c1S(=O)(=O)O | 102 ± 9% | > 100 µM |  |  |  |  |  |  | 
Cc1ccc2nc(-c3ccc(NC(=O)c4ccc(N)cc4)cc3)sc2c1S(=O)(=O)O | 103 ± 6% | 69 ± 26 µM |  |  |  |  |  |  | 
Cc1ccc2nc(-c3ccc(NC(=O)c4ccc(NS(=O)(=O)c5ccccc5)cc4)cc3)sc2c1S(=O)(=O)O | 119 ± 11% | > 100 µM |  |  |  |  |  |  | 
Cc1ccc2nc(-c3ccc(NC(=S)Nc4ccccc4Br)cc3)sc2c1 | 39 ± 10% | > 100 µM |  |  |  |  |  |  | 
Cc1ccc2nc(-c3ccc4nc(NC(=O)c5ccc6ncoc6c5)sc4c3)sc2c1 | 28 ± 5% | 60 ± 6.1 µM |  |  |  |  |  |  | 
Cc1ccc2nc(-c3ccc4nc(-c5ccc(NC(=O)c6ccccc6)cc5)sc4c3)sc2c1S(=O)(=O)O [Compound 5, 2′-(4-benzamidophenyl)-6-methyl-[2,6′-bibenzo[d]thiazole]-7-sulfonic acid] | 88 ± 2% | 10.7 ± 1.5 µM | 88 ± 2% | 11 ± 1.5 µM | 11 ± 2 µM | 31 ± 13% | 31 ± 13% | > 100 µM | 
Cc1ccc2nc(-c3ccc4nc(-c5ccc(NC(=O)c6ccc(N)cc6)cc5)sc4c3)sc2c1S(=O)(=O)O [Compound 6, 2′-(4-(4-aminobenzamido)phenyl)-6-methyl-[2,6′-bibenzo[d]thiazole]-7-sulfonic acid] | 93 ± 4% | 10.3 ± 2.4 µM | 93 ± 4% | 10 ± 2.4 µM | 10 ± 2 µM | 63 ± 15% | 63 ± 15% | 55 ± 13 µM | IC50 [1, 6]: 10 ± 2.4 µM
Cc1ccc2nc(-c3ccc4nc(-c5ccc(NC(=O)c6ccc(F)cc6)cc5)sc4c3)sc2c1S(=O)(=O)O.N [Compound 7, 2′-(4-(4-fluorobenzamido)phenyl)-6-methyl-[2, bibenzo[d]thiazole]-7-sulfonic acid] | 94 ± 2% | 5.2 ± 0.6 µM | 94 ± 2% | 5.2 ± 0.6 µM | 5 ± 1 µM | 35 ± 15% | 35 ± 15% | > 100 µM | IC50 [1, 6]: 5 ± 0.6 µM
COc1ccc(C(=O)Nc2ccc(-c3nc4ccc(-c5nc6ccc(C)c(S(=O)(=O)O)c6s5)cc4s3)cc2)cc1 [Compound 8, 2′-(4-(4-methoxybenzamido)phenyl)-6-methyl-[2,6′-bibenzo[d]thiazole]-7-sulfonic acid] | 85 ± 5% |  | 85 ± 5% |  |  | 35 ± 10% | 35 ± 10% | > 100 µM | IC50 [1, 7]: 10 ± 3 µM; IC50 [1, 8]: 10 ± 2.6 µM; IC50 [1, 9]: 10 ± 2.6 µM
COC(=O)c1ccc(C(=O)Nc2ccc(-c3nc4ccc(-c5nc6ccc(C)c(S(=O)(=O)O)c6s5)cc4s3)cc2)cc1 [Compound 9, 2′-(4-(4-(methoxycarbonyl)benzamido)phenyl)-6-methyl-[2,6′-bibenzo[d]thiazole]-7-sulfonic acid] | 101 ± 8% | 9.7 ± 4.6 µM | 101 ± 8% | 9.7 ± 4.6 µM | 10 ± 5 µM | 28 ± 10% | 28 ± 10% | > 100 µM | 
Cc1ccc2nc(-c3ccc4nc(-c5ccc(NC(=O)c6ccc(Cl)cc6)cc5)sc4c3)sc2c1S(=O)(=O)O [Compound 10, 2′-(4-(4-chlorobenzamido)phenyl)-6-methyl-[2,6′-bibenzo[d]thiazole]-7-sulfonic acid] | 84 ± 6% |  | 84 ± 6% |  |  | 67 ± 17% | 67 ± 17% | 31 ± 15 µM | IC50 [1, 7]: 3 µM; IC50 [1, 8]: 3.4 ± 0.3 µM; IC50 [1, 9]: 3.4 ± 0.3 µM
Cc1ccc(C(=O)Nc2ccc(-c3nc4ccc(-c5nc6ccc(C)c(S(=O)(=O)O)c6s5)cc4s3)cc2)cc1 [Compound 11, 6-methyl-2′-(4-(4-methylbenzamido)phenyl)-[2,6′-bibenzo[d]thiazole]-7-sulfonic acid] | 87 ± 4% | 3.3 ± 0.3 µM | 87 ± 4% | 3.3 ± 0.3 µM | 3 µM | 50 ± 15% | 50 ± 15% | > 100 µM | EC50 (MBHA DNA substrate; [10]): > 100 µM
Cc1ccc2nc(-c3ccc4nc(-c5ccc(NC(=O)c6cccnc6)cc5)sc4c3)sc2c1S(=O)(=O)O [Compound 31, 6-methyl-2′-(4-(nicotinamido)phenyl)-[2,6′-bibenzo[d]thiazole]-7-sulfonic acid] | 113 ± 6% |  | 113 ± 6% |  |  | 15 ± 10% | 15 ± 10% | > 100 µM | 
Cc1ccc2nc(-c3ccc4nc(-c5ccc(NC(=O)c6ccncc6)cc5)sc4c3)sc2c1S(=O)(=O)O [Compound 32, 2′-(4-(isonicotinamido)phenyl)-6-methyl-[2,6′-bibenzo[d]thiazole]-7-sulfonic acid] | 117 ± 5% |  | 117 ± 5% |  |  | 19 ± 7% | 19 ± 7% | > 100 µM | 
Cc1ccc2nc(-c3ccc4nc(-c5ccc(N)cc5)sc4c3)sc2c1S(=O)(=O)O [Compound P2a, 2′-(4-aminophenyl)-6-methyl-[2,6′-bibenzo[d]thiazole]-7-sulfonic acid] |  |  |  | 49 µM | 6 ± 2 µM |  |  |  | IC50 [1, 6]: 45 ± 14 µM; times lower affinity towards NS3 than P4 ([1]; versus P4): 10-20 times
Cc1ccc2nc(-c3ccc4nc(-c5ccc6nc(-c7ccc(N)cc7)sc6c5)sc4c3)sc2c1S(=O)(=O)O [Compound P3, 2″-(4-aminophenyl)-6-methyl-[2,6′:2′,6″-terbenzo[d]thiazole]-7-sulfonic acid] |  |  |  | 0.9 ± 0.1 µM |  |  |  |  | 
Cc1ccc2nc(-c3ccc4nc(-c5ccc6nc(-c7ccc8nc(-c9ccc(N)cc9)sc8c7)sc6c5)sc4c3)sc2c1S(=O)(=O)O [Compound P4, 2′″-(4-aminophenyl)-6-methyl-[2,6′:2″,6′″-quaterbenzo[d]thiazole]-7-sulfonic acid] |  |  |  | 0.8 µM |  |  |  |  | IC50 [1, 6]: 2 ± 0.1 µM; fold weaker DNA binding than potency in MBHA (MBHA DNA substrate; DNA binding versus MBHA IC50): 17 fold; EC50 (MBHA DNA substrate; [10]): 15 ± 8 µM

Reference: patent publication US9464064B2, “HCV helicase inhibitors and methods of use thereof” (University of Kansas, priority 2011, dated 2016)
